System: TNFα-Freisetzung
Experiment: Inhibition of TNFα release after LPS stimulation of human whole blood (ELISA)
Assay type: cell-based
Conditions: human whole blood diluted 1:5 with RPMI 1640, LPS (Salmonella abortus equi) 1 µg/ml, 24 h at 37°C, TNFα in supernatant by ELISA; read-out: Hemmung der TNFα-Freisetzung, EC50
Text: Methodenbeschreibung der Hemmung der TNFα Freisetzung nach LPS Stimulation von humanem Vollblut
Die Stimulierung isolierter Leukozyten für die Freisetzung von Zytokinen kann auf verschiedenen Wegen erfolgen. Lipopolysaccharide (LPS) stellen einen Stimulus für die Untersuchung der Freisetzung von TNFα dar. LPS ist Bestandteil bakterieller Zellwände und wird beim Abtöten der Bakterien (durch Antibiotika oder das natürliche Immunsystem) freigesetzt. LPS stimuliert insbesondere die Aktivität phagozytierender Leukozyten (Gewebsmakrophagen, Granulozyten, Monozyten) und verursacht die Infiltration von Leukozyten vom peripheren Blut in das betroffene Gewebe. Ein Zytokin von besonderer Bedeutung für diese Mechanismen ist TNFα, das in großen Mengen durch die betroffenen Zellen sezerniert wird. Hauptquelle dabei sind Monozyten und Makrophagen. TNFα initiiert und prolongiert den Entzündungsprozess im Zusammenspiel mit anderen Mediatoren.
Für die Untersuchung des Effektes auf die LPS-induzierte TNFα-Freisetzung wurde eine Methode verwendet, die von MARX et al. (Marx D, Tassabehji M, Heer S, Hüttenbrink KB, Szelenyi I (2002) Pulmonary Pharmacology & Therapeutics 15 7-15) beschrieben wurde. Die Methodenbeschreibung in verkürzter Darstellung: Humanes Blut verschiedener Spendern wird durch Zusatz von 10 mM Na-Citrat ungerinnbar gemacht und 1:5 mit RPMI 1640 Zellkulturmedium verdünnt. Die Verbindungen der allgemeinen Formel 1 sowie die Kontrollsubstanzen (z.B. Dexamethason) wurden den Blutproben in verschiedenen Konzentrationen hinzugefügt. 15 Minuten später wurden die Leukozyten durch Zusatz von Lipopolysacchariden (LPS) (aus Salmonella abortus equi) in einer Endkonzentration von 1 µg/ml stimuliert. Nach Inkubation der Testansätze für 24 Stunden bei 37°C. und unter 5% CO2 in wassergesättigter Luft, wurde das Blut zentrifugiert und die Konzentration an TNFα im zellfreien Überstand unter Verwendung eines käuflichen ELISA (BD Biosciences) nach Angaben des Herstellers exakt vermessen.

SMILES | EC50
CSc1ccc(-c2cc(C)c3c(N)c(C(N)=O)sc3n2)cc1 [3-Amino-4-methyl-6-(4-methylthio-phenyl)-thieno[2,3-b]pyridin-2-carbonsäureamid] | < 5 nM
NC(=O)c1sc2nc(-c3cccs3)cc(C(F)(F)F)c2c1N [3-Amino-6-(2-thienyl)-4-trifluormethyl-thieno[2,3-b]pyridin-2-carbonsäureamid] | < 5 nM
Cc1cc(-c2ccc3c(c2)OCCO3)nc2sc(C(N)=O)c(N)c12 [3-Amino-6-(3,4-dioxoethylen-phenyl)-4-methyl-thieno[2,3-b]pyridin-2-carbonsäureamid] | < 5 nM
NC(=O)c1sc2nc(-c3ccc4c(c3)OCCO4)cc(C(F)(F)F)c2c1N [3-Amino-6-(3,4-dioxoethylen-phenyl)-4-trifluormethyl-thieno[2,3-b]pyridin-2-carbonsäureamid] | < 5 nM
Cc1cc(-c2ccc(Cl)cc2)nc2sc(C(N)=O)c(N)c12 [3-Amino-6-(4-chlor-phenyl)-4-methyl-thieno[2,3-b]pyridin-2-carbonsäureamid] | < 5 nM
CSc1ccc(-c2cc(C(F)(F)F)c3c(N)c(C(N)=O)sc3n2)cc1 [3-Amino-6-(4-methylthio-phenyl)-4-trifluormethyl-thieno[2,3-b]pyridin-2-carbonsäureamid] | < 5 nM
Cc1cccc(-c2cc(C)c3c(N)c(C(N)=O)sc3n2)c1 [Beispiel 2, 3-Amino-4-methyl-6-(3-methyl-phenyl)-thieno[2,3-b]pyridin-2-carbonsäureamid] | < 5 nM
Cc1ccc(-c2cc(C)c3c(N)c(C(N)=O)sc3n2)cc1 [Beispiel 3, 3-Amino-4-methyl-6-(4-methyl-phenyl)-thieno[2,3-b]pyridin-2-carbonsäureamid] | < 5 nM
COc1ccc(-c2cc(C)c3c(N)c(C(N)=O)sc3n2)cc1 [Beispiel 4, 3-Amino-4-methyl-6-(4-methoxy-phenyl)-thieno[2,3-b]pyridin-2-carbonsäureamid] | < 5 nM
Cc1cc(-c2ccc(F)cc2)nc2sc(C(N)=O)c(N)c12 [Beispiel 6, 3-Amino-6-(4-fluor-phenyl)-4-methyl-thieno[2,3-b]pyridin-2-carbonsäureamid] | < 5 nM
Cc1cc(-c2ccc(Br)cc2)nc2sc(C(N)=O)c(N)c12 [Beispiel 7, 3-Amino-6-(4-brom-phenyl)-4-methyl-thieno[2,3-b]pyridin-2-carbonsäureamid] | < 5 nM
Cc1cc(-c2ccccc2)nc2sc(C(N)=O)c(N)c12 [Beispiel 8, 3-Amino-4-methyl-6-phenyl-thieno[2,3-b]pyridin-2-carbonsäureamid] | < 5 nM
Cc1cc(-c2ccc3c(c2)OCO3)nc2sc(C(N)=O)c(N)c12 [Beispiel 9, 3-Amino-6-(3,4-dioxomethylen-phenyl)-4-methyl-thieno[2,3-b]pyridin-2-carbonsäureamid] | < 5 nM
Cc1cc(-c2cccs2)nc2sc(C(N)=O)c(N)c12 [Beispiel 10, 3-Amino-4-methyl-6-(2-thienyl)-thieno[2,3-b]pyridin-2-carbonsäureamid] | < 5 nM
Cc1ccc(-c2cc(C(F)F)c3c(N)c(C(N)=O)sc3n2)cc1 [Beispiel 11, 3-Amino-4-difluormethyl-6-(4-methyl-phenyl)-thieno[2,3-b]pyridin-2-carbonsäureamid] | < 5 nM
CC(C)c1ccc(-c2cc(C(F)(F)F)c3c(N)c(C(N)=O)sc3n2)cc1 [Beispiel 12, 3-Amino-6-(4-isopropyl-phenyl)-4-trifluormethyl-thieno[2,3-b]pyridin-2-carbonsäureamid] | < 5 nM

SMILES | EC50
NC(=O)c1sc2nc(-c3ccccc3)cc(C(F)(F)F)c2c1N [Beispiel 13, 3-Amino-6-phenyl-4-trifluormethyl-thieno[2,3-b]pyridin-2-carbonsäureamid] | < 5 nM
Cc1ccc(-c2cc(C(F)(F)F)c3c(N)c(C(N)=O)sc3n2)cc1 [Beispiel 14, 3-Amino-6-(4-methyl-phenyl)-4-trifluormethyl-thieno[2,3-b]pyridin-2-carbonsäureamid] | < 5 nM
CCc1ccc(-c2cc(C(F)(F)F)c3c(N)c(C(N)=O)sc3n2)cc1 [Beispiel 15, 3-Amino-6-(4-ethyl-phenyl)-4-trifluormethyl-thieno[2,3-b]pyridin-2-carbonsäureamid] | < 5 nM
CCCc1ccc(-c2cc(C(F)(F)F)c3c(N)c(C(N)=O)sc3n2)cc1 [Beispiel 16, 3-Amino-6-(4-propyl-phenyl)-4-trifluormethyl-thieno[2,3-b]pyridin-2-carbonsäureamid] | < 5 nM
Cc1ccc(-c2cc(C(F)(F)F)c3c(N)c(C(N)=O)sc3n2)cc1C [Beispiel 18, 3-Amino-6-(3,4-dimethyl-phenyl)-4-trifluormethyl-thieno[2,3-b]pyridin-2-carbonsäureamid] | < 5 nM
COc1ccc(-c2cc(C(F)(F)F)c3c(N)c(C(N)=O)sc3n2)cc1 [Beispiel 19, 3-Amino-6-(4-methoxy-phenyl)-4-trifluormethyl-thieno[2,3-b]pyridin-2-carbonsäureamid] | < 5 nM
CCOc1ccc(-c2cc(C(F)(F)F)c3c(N)c(C(N)=O)sc3n2)cc1 [Beispiel 20, 3-Amino-6-(4-ethoxy-phenyl)-4-trifluormethyl-thieno[2,3-b]pyridin-2-carbonsäureamid] | < 5 nM
NC(=O)c1sc2nc(-c3ccc(F)cc3)cc(C(F)(F)F)c2c1N [Beispiel 21, 3-Amino-6-(4-fluor-phenyl)-4-trifluormethyl-thieno[2,3-b]pyridin-2-carbonsäureamid] | < 5 nM
NC(=O)c1sc2nc(-c3ccc(Cl)cc3)cc(C(F)(F)F)c2c1N [Beispiel 22, 3-Amino-6-(4-chlor-phenyl)-4-trifluormethyl-thieno[2,3-b]pyridin-2-carbonsäureamid] | < 5 nM
NC(=O)c1sc2nc(-c3ccc(Br)cc3)cc(C(F)(F)F)c2c1N [Beispiel 23, 3-Amino-6-(4-brom-phenyl)-4-trifluormethyl-thieno[2,3-b]pyridin-2-carbonsäureamid] | < 5 nM
NC(=O)c1sc2nc(-c3ccc4ccccc4c3)cc(C(F)(F)F)c2c1N [Beispiel 25, 3-Amino-6-(2-naphthyl)-4-trifluormethyl-thieno[2,3-b]pyridin-2-carbonsäureamid] | < 5 nM
NC(=O)c1sc2nc(-c3ccc4c(c3)OCO4)cc(C(F)(F)F)c2c1N [Beispiel 26, 3-Amino-6-(3,4-dioxomethylen-phenyl)-4-trifluormethyl-thieno[2,3-b]pyridin-2-carbonsäureamid] | < 5 nM
CCc1cc(-c2ccc(C)cc2)nc2sc(C(N)=O)c(N)c12 [Beispiel 27, 3-Amino-4-ethyl-6-(4-methyl-phenyl)-thieno[2,3-b]pyridin-2-carbonsäureamid] | < 5 nM
CCc1cc(-c2ccc(Cl)cc2)nc2sc(C(N)=O)c(N)c12 [Beispiel 30, 3-Amino-6-(4-chlor-phenyl)-4-ethyl-thieno[2,3-b]pyridin-2-carbonsäureamid] | < 5 nM
CCc1cc(-c2ccc(SC)cc2)nc2sc(C(N)=O)c(N)c12 [Beispiel 31, 3-Amino-4-ethyl-6-(4-methylthio-phenyl)-thieno[2,3-b]pyridin-2-carbonsäureamid] | < 5 nM
